# Patent US20260231994A1, “TASTE-ENHANCING COMPOSITION, METHOD FOR PRODUCING SAME, FOOD PRODUCT, AND METHOD FOR ENHANCING TASTE OF FOOD PRODUCT” (HOUSE FOODS GROUP INC., priority 2023, published 2026)
# How the values were obtained:
# Assay type in all cases: in vivo
# [1] = Experiment 6 sensory evaluation of cyclic dipeptides, “middle fullness (enhanced thickness)”
# Protocol: (§1) An aqueous solution in which the concentration of each of the cyclic dipeptides shown in the table described below is set to be the same as its concentration in the heat-treated coriander prepared in 1.1. described above, as estimated from the ratio of the peak area of the cyclic dipeptides to the peak area of the internal standard (47 μg/g of L-lysine-^13C6 monohydrochloride) (hereinafter referred to as “heat-treated coriander equivalent aqueous solution”) was prepared. An aqueous solution in which the concentration of each of the cyclic dipeptides is set to be the same as its concentration in the heat-treated paprika of Example 203 prepared in 2.1 described above (hereinafter referred to as “heat-treated paprika equivalent aqueous solution”) was also prepared. Cyclic dipeptides prepared by the applicant were used in this experiment. As a cyclic dipeptide comprising Leu/Ile, a mixture comprising equal parts of cyclic dipeptide comprising Leu and cyclic dipeptide comprising Ile was used.
# (§2) Common and reduced-sodium curry rouxes were prepared according to the procedures described in (1) and (2) of 1.3. described above.
# (§3) Two dispersions of 44 g of the aforesaid reduced-sodium curry roux dispersed in 300 g of hot water were prepared. To one of them was added the heat-treated coriander equivalent solution or heat-treated paprika equivalent aqueous solution of the individual cyclic dipeptides shown in the table described below so as to be in the final concentration of 0.5% (w/w) or 1.0% (w/w), respectively.
# (§4) Forty-four grams of the aforesaid common curry roux was dispersed in 300 g of hot water.
# (§5) The dispersion of reduced-sodium curry roux dispersed in hot water and the dispersion of common curry roux dispersed in hot water were used as comparative controls, and the strength of the flavor was evaluated by three evaluators on the basis of the following evaluation criteria from the viewpoint of “top sharp saltiness”, “middle fullness (enhanced thickness) and “boosting of last flavor (aftertaste).”
# (§6) The average of the evaluated scores was defined as “F” when it was 1.0 or lower, “C” when it was 1.1 or higher and 1.9 or lower, “B” when it was 2.0 or higher and 2.5 or lower, “A” when it was 2.6 or higher and 2.9 or lower, and “AA” when it was 3.0 or higher.
# (§7) In the table described below, “ID” refers to the compound ID described above. The items of “coriander 0.5%” and “coriander 1.0%” refer to the addition of the aforesaid heat-treated coriander equivalent aqueous solution of cyclic dipeptide so that the final concentrations may be 0.5% (w/w) and 1.0% (w/w), respectively. The items of “paprika 0.5%” and “paprika 1.0%” refer to the addition of the aforesaid heat-treated paprika equivalent aqueous solution of cyclic dipeptide so that the final concentration may be 0.5% (w/w) and 1.0% (w/w), respectively.
# [2] = Experiment 6 sensory evaluation of cyclic dipeptides, “boosting of last flavor (aftertaste)”
# Protocol: as §1, §2, §3, §4, §5, §6, §7
# [3] = Experiment 6 sensory evaluation of cyclic dipeptides, “top sharp saltiness”
# Protocol: as §1, §2, §3, §4, §5, §6, §7
# [4] = Additive amount paprika 0.5%, reduced-sodium curry roux
# [5] = heat-treated paprika equivalent aqueous solution of cyclic dipeptide, final 1.0% (w/w) in reduced-sodium curry roux dispersion
# [6] = heat-treated paprika equivalent aqueous solution of cyclic dipeptide, final 1.0% (w/w) in reduced-sodium curry roux dispersion, 3 evaluators
# [7] = Additive amount paprika 0.5% (heat-treated paprika equivalent aqueous solution, final 0.5% (w/w)), reduced-sodium curry roux
# [8] = Additive amount coriander 0.5%, reduced-sodium curry roux
# [9] = heat-treated coriander equivalent aqueous solution of cyclic dipeptide, final 1.0% (w/w) in reduced-sodium curry roux dispersion
# [10] = heat-treated coriander equivalent aqueous solution of cyclic dipeptide, final 1.0% (w/w) in reduced-sodium curry roux dispersion, 3 evaluators
# [11] = Additive amount coriander 0.5% (heat-treated coriander equivalent aqueous solution, final 0.5% (w/w)), reduced-sodium curry roux
Substance,"Middle fullness Average [1, 4] [points]","Middle fullness Evaluation [1, 4]","Middle fullness Evaluation [1, 5]","Middle fullness Average [1, 6] [points]","Bosting of last flavor Average [2, 4] [points]","Bosting of last flavor Evaluation [2, 4]","Bosting of last flavor Evaluation [2, 5]","Bosting of last flavor Average [2, 6] [points]","Middle fullness Average [1, 8] [points]","Middle fullness Evaluation [1, 8]","Middle fullness Evaluation [1, 9]","Middle fullness Average [1, 10] [points]","Bosting of last flavor Average [2, 8] [points]","Bosting of last flavor Evaluation [2, 8]","Bosting of last flavor Evaluation [2, 9]","Bosting of last flavor Average [2, 10] [points]","Top sharp saltiness Average [3, 11] [points]","Top sharp saltiness Evaluation [3, 8]","Top sharp saltiness Evaluation [3, 9]","Top sharp saltiness Average [3, 10] [points]",also measured
cyclic (Phe-Thr) [Coriander ID 37],2.5,B (“B” when it was 2.0 or higher and 2.5 or lower),B (“B” when it was 2.0 or higher and 2.5 or lower),2.2,2.7,A (“A” when it was 2.6 or higher and 2.9 or lower),B (“B” when it was 2.0 or higher and 2.5 or lower),2.3,,,,,,,,,,,,,"Top sharp saltiness Average [3, 7]: 1.8 points; Top sharp saltiness Evaluation [3, 4]: C (“C” when it was 1.1 or higher and 1.9 or lower); Top sharp saltiness Evaluation [3, 5]: B (“B” when it was 2.0 or higher and 2.5 or lower); Top sharp saltiness Average [3, 6]: 2.3 points"
cyclic (Gly-Thr) [Coriander ID 60],,,,,,,,,3.2,AA (“AA” when it was 3.0 or higher),A (“A” when it was 2.6 or higher and 2.9 or lower),2.7,3.2,AA (“AA” when it was 3.0 or higher),B (“B” when it was 2.0 or higher and 2.5 or lower),2.5,3.3,AA (“AA” when it was 3.0 or higher),B (“B” when it was 2.0 or higher and 2.5 or lower),2.0,
cyclic (Ala-Arg) [Coriander ID 11],,,,,,,,,1.8,C (“C” when it was 1.1 or higher and 1.9 or lower),B (“B” when it was 2.0 or higher and 2.5 or lower),2.7,1.8,B (“B” when it was 2.0 or higher and 2.5 or lower),A (“A” when it was 2.6 or higher and 2.9 or lower),2.7,2.0,B (“B” when it was 2.0 or higher and 2.5 or lower),B (“B” when it was 2.0 or higher and 2.5 or lower),2.2,
cyclic (Ala-His) [Coriander ID 10],,,,,,,,,3.2,AA (“AA” when it was 3.0 or higher),AA (“AA” when it was 3.0 or higher),3.3,3.3,AA (“AA” when it was 3.0 or higher),AA (“AA” when it was 3.0 or higher),3.7,2.7,A (“A” when it was 2.6 or higher and 2.9 or lower),B (“B” when it was 2.0 or higher and 2.5 or lower),2.3,
cyclic (Val-Ser) [Coriander ID 59],2.7,A (“A” when it was 2.6 or higher and 2.9 or lower),B (“B” when it was 2.0 or higher and 2.5 or lower),2.2,2.7,A (“A” when it was 2.6 or higher and 2.9 or lower),A (“A” when it was 2.6 or higher and 2.9 or lower),2.8,,,,,,,,,,,,,"Top sharp saltiness Average [3, 7]: 2.5 points; Top sharp saltiness Evaluation [3, 4]: B (“B” when it was 2.0 or higher and 2.5 or lower); Top sharp saltiness Evaluation [3, 5]: C (“C” when it was 1.1 or higher and 1.9 or lower); Top sharp saltiness Average [3, 6]: 1.8 points"
cyclic (Gly-Leu/Ile) [Coriander ID 25],2.7,A (“A” when it was 2.6 or higher and 2.9 or lower),A (“A” when it was 2.6 or higher and 2.9 or lower),2.7,3.0,AA (“AA” when it was 3.0 or higher),A (“A” when it was 2.6 or higher and 2.9 or lower),2.7,,,,,,,,,,,,,"Top sharp saltiness Average [3, 7]: 3.0 points; Top sharp saltiness Evaluation [3, 4]: AA (“AA” when it was 3.0 or higher); Top sharp saltiness Evaluation [3, 5]: A (“A” when it was 2.6 or higher and 2.9 or lower); Top sharp saltiness Average [3, 6]: 2.8 points"
cyclic (Glu-Leu/Ile) [Coriander ID 47],,,,,,,,,2.8,A (“A” when it was 2.6 or higher and 2.9 or lower),B (“B” when it was 2.0 or higher and 2.5 or lower),2.3,3.0,AA (“AA” when it was 3.0 or higher),A (“A” when it was 2.6 or higher and 2.9 or lower),2.7,2.3,B (“B” when it was 2.0 or higher and 2.5 or lower),B (“B” when it was 2.0 or higher and 2.5 or lower),2.2,
cyclic (Pro-Leu/Ile) [Coriander ID 39],,,,,,,,,1.8,C (“C” when it was 1.1 or higher and 1.9 or lower),C (“C” when it was 1.1 or higher and 1.9 or lower),1.8,2.2,B (“B” when it was 2.0 or higher and 2.5 or lower),C (“C” when it was 1.1 or higher and 1.9 or lower),1.7,1.5,C (“C” when it was 1.1 or higher and 1.9 or lower),C (“C” when it was 1.1 or higher and 1.9 or lower),1.8,
cyclic (Ala-Tyr) [Coriander ID 26],,,,,,,,,2.3,B (“B” when it was 2.0 or higher and 2.5 or lower),B (“B” when it was 2.0 or higher and 2.5 or lower),2.2,2.2,B (“B” when it was 2.0 or higher and 2.5 or lower),B (“B” when it was 2.0 or higher and 2.5 or lower),2.3,2.2,B (“B” when it was 2.0 or higher and 2.5 or lower),C (“C” when it was 1.1 or higher and 1.9 or lower),1.3,
cyclic (Leu/Ile-Leu/Ile) [Coriander ID 1],2.7,A (“A” when it was 2.6 or higher and 2.9 or lower),C (“C” when it was 1.1 or higher and 1.9 or lower),1.8,3.0,AA (“AA” when it was 3.0 or higher),B (“B” when it was 2.0 or higher and 2.5 or lower),2.3,,,,,,,,,,,,,"Top sharp saltiness Average [3, 7]: 2.7 points; Top sharp saltiness Evaluation [3, 4]: A (“A” when it was 2.6 or higher and 2.9 or lower); Top sharp saltiness Evaluation [3, 5]: C (“C” when it was 1.1 or higher and 1.9 or lower); Top sharp saltiness Average [3, 6]: 1.7 points"
